According to ChEMBL document CHEMBL5625209, “Rational design and optimization of acylthioureas as novel potent influenza virus non-nucleoside polymerase inhibitors” (Eur J Med Chem, 2023):
Calls of active or inactive are those of the source. No cut-off for these calls is given here.

Experiments:
[1] = Tmax in Sprague-Dawley rat at 10 mg/kg, po measured up to 24 hrs by LC-MS analysis; assay type: ADME, organism-based; settings: in vivo
[2] = Metabolic stability in human plasma assessed as half life measured upto 120 mins by LC-MS/MS analysis; assay type: ADME, cell-free
[3] = Clearance in Sprague-Dawley rat at 3 mg/kg, iv measured up to 24 hrs by LC-MS analysis; assay type: ADME, organism-based; settings: in vivo
[4] = tested on: Influenza A virus; assay: Antiviral activity against Influenza A virus H1N1 (A/Puerto Rico/8/34) infected in MDCK cells assessed as reduction in viral proliferation at 20 nM pre-infected with virus for 1 hr followed by compound addition and measured after 48 hrs by crystal violet staining based plaque formation assay; assay type: functional, organism-based
[5] = tested on: Influenza A virus; assay: Antiviral activity against Influenza A virus H1N1 (A/Puerto Rico/8/34) infected in MDCK cells assessed as reduction in NP protein level at 1 uM in presence of rCTP by Western blot analysis; assay type: functional, organism-based
[6] = tested on: Influenza B virus; assay: Antiviral activity against influenza B virus B/Yamagata/16/88 infected in MDCK cells; assay type: functional, organism-based; settings: B/Yamagata/16/88, MDCK
[7] = tested on: Influenza A virus; assay: Antiviral activity against Influenza A virus H1N1 (A/Puerto Rico/8/34) infected in MDCK cells assessed as reduction in NP protein level at 1 uM in presence of rNTP by Western blot analysis; assay type: functional, organism-based
[8] = Toxicity in BALB/c mouse assessed as ruffled fur at 1 g/kg, IG administered 3 times per day and measured for 14 days; settings: in vivo, po, 1000 mg/kg, 336 h, time 14 day
[9] = AUC(0 to infinity) in Sprague-Dawley rat at 3 mg/kg, iv measured up to 24 hrs by LC-MS analysis; assay type: ADME, organism-based; settings: Sprague-Dawley, in vivo
[10] = Metabolic stability in dog liver microsomes assessed as hepatic extraction ratio preincubated for 5 mins followed by NADPH addition and measured upto 45 mins by LC-MS analysis; assay type: ADME, Canis lupus familiaris, Microsome; settings: time < 50 min
[11] = Metabolic stability in human plasma assessed as remaining compound measured upto 120 mins by LC-MS/MS analysis; assay type: ADME, cell-free; settings: read-out: Stability
[12] = tested on: Influenza A virus; assay: Antiviral activity against Influenza A virus H1N1 (A/Puerto Rico/8/34) infected in MDCK cells assessed as reduction in NP protein level at 1 uM treated at 4 hrs post infection by Western blot analysis; assay type: functional, organism-based
[13] = Selectivity index, ratio of CC50 for MDCK cells to EC50 for antiviral activity against Influenza A virus H1N1 (A/Puerto Rico/8/34) infected in MDCK cells; assay type: toxicity, cell-based; settings: dog, read-out: Ratio CC50/EC50
[14] = Toxicity in BALB/c mouse assessed as body weight loss at 1 g/kg, IG administered 3 times per day; settings: in vivo, po, 1000 mg/kg
[15] = tested on: Influenza A virus; assay: Antiviral activity against Influenza A virus H1N1 (A/Puerto Rico/8/34) infected in BALB/c mouse at 100 mg/kg/day, po administered twice daily for 7 days and measured after 14 days; assay type: functional; settings: time 14 day
[16] = Toxicity in BALB/c mouse assessed as lethargy at 1 g/kg, IG administered 3 times per day and measured for 14 days; settings: in vivo, po, 1000 mg/kg, 336 h, time 14 day
[17] = tested on: Influenza B virus; assay: Antiviral activity against influenza B virus Victoria/2/87 infected in MDCK cells; assay type: functional, organism-based; settings: Victoria/2/87, MDCK
[18] = tested on: Influenza A virus; assay: Antiviral activity against Influenza A virus H1N1 (A/Puerto Rico/8/34) infected in MDCK cells assessed as reduction in NP protein level at 1 uM in presence of 125 uM rNTP by Western blot analysis; assay type: functional, organism-based
[19] = tested on: Influenza A virus; assay: Inhibition of Influenza A virus RdRp activity assessed as reduction in Fluc/Rluc ratio; settings: dose 0.5-50 µM
[20] = Metabolic stability in mouse liver microsomes assessed as hepatic clearance preincubated for 5 mins followed by NADPH addition and measured upto 45 mins by LC-MS analysis; assay type: ADME, Microsome; settings: time < 50 min
[21] = tested on: Influenza A virus; assay: Antiviral activity against Influenza A virus H1N1 (A/Puerto Rico/8/34) infected in MDCK cells assessed as reduction in nucleocapsid protein level by Western blot analysis; assay type: functional, organism-based; settings: dose 2-125 nM
[22] = AUC(0 to infinity) in Sprague-Dawley rat at 10 mg/kg, po measured up to 24 hrs by LC-MS analysis; assay type: ADME, organism-based; settings: in vivo
[23] = Cmax in Sprague-Dawley rat at 3 mg/kg, iv measured up to 24 hrs by LC-MS analysis; assay type: ADME, organism-based; settings: in vivo
[24] = Metabolic stability in mouse liver microsomes assessed as hepatic extraction ratio preincubated for 5 mins followed by NADPH addition and measured upto 45 mins by LC-MS analysis; assay type: ADME, Microsome; settings: time < 50 min
[25] = Metabolic stability in human liver microsomes assessed as half life preincubated for 5 mins followed by NADPH addition and measured upto 45 mins by LC-MS analysis; assay type: ADME, Microsome; settings: time < 50 min
[26] = Metabolic stability in human liver microsomes assessed as hepatic extraction ratio preincubated for 5 mins followed by NADPH addition and measured upto 45 mins by LC-MS analysis; assay type: ADME, Microsome; settings: time < 50 min
[27] = Metabolic stability in human liver microsomes assessed as hepatic clearance preincubated for 5 mins followed by NADPH addition and measured upto 45 mins by LC-MS analysis; assay type: ADME, Microsome; settings: time < 50 min
[28] = Toxicity in BALB/c mouse assessed as clonic convulsion at 1 g/kg, IG administered 3 times per day and measured for 14 days; settings: in vivo, po, 1000 mg/kg, 336 h, time 14 day
[29] = Oral bioavailability in Sprague-Dawley rat at 10 mg/kg measured up to 24 hrs by LC-MS analysis; assay type: ADME, organism-based; settings: in vivo
[30] = Metabolic stability in mouse liver microsomes assessed as intrinsic clearance preincubated for 5 mins followed by NADPH addition and measured upto 45 mins by LC-MS analysis; assay type: ADME, Microsome; settings: time < 50 min, read-out: CLH
[31] = Cmax in Sprague-Dawley rat at 10 mg/kg, po measured up to 24 hrs by LC-MS analysis; assay type: ADME, organism-based; settings: in vivo
[32] = tested on: Influenza A virus; assay: Antiviral activity against Influenza A virus H1N1 (A/Puerto Rico/8/34) infected in MDCK cells assessed as reduction in NP protein level at 1 uM in presence of rUTP by Western blot analysis; assay type: functional, organism-based
[33] = tested on: Influenza A virus; assay: Antiviral activity against Influenza A virus H1N1 (A/Puerto Rico/8/34) infected in MDCK cells assessed as reduction in nucleocapsid protein mRNA level by qRT-PCR analysis; assay type: functional, organism-based; settings: dose 2-31.3 nM
[34] = Metabolic stability in dog liver microsomes assessed as hepatic clearance preincubated for 5 mins followed by NADPH addition and measured upto 45 mins by LC-MS analysis; assay type: ADME, Canis lupus familiaris, Microsome; settings: time < 50 min
[35] = Metabolic stability in dog liver microsomes assessed as half life preincubated for 5 mins followed by NADPH addition and measured upto 45 mins by LC-MS analysis; assay type: ADME, Canis lupus familiaris, Microsome; settings: time < 50 min
[36] = Metabolic stability in dog liver microsomes assessed as intrinsic clearance preincubated for 5 mins followed by NADPH addition and measured upto 45 mins by LC-MS analysis; assay type: ADME, Canis lupus familiaris, Microsome; settings: time < 50 min, read-out: CLH
[37] = Metabolic stability in mouse liver microsomes assessed as half life preincubated for 5 mins followed by NADPH addition and measured upto 45 mins by LC-MS analysis; assay type: ADME, Microsome; settings: time < 50 min
[38] = Toxicity in BALB/c mouse assessed as animal death at 1 g/kg, IG administered 3 times per day and measured for 14 days; settings: in vivo, po, 1000 mg/kg, 336 h, time 14 day
[39] = Half life in Sprague-Dawley rat at 3 mg/kg, iv measured up to 24 hrs by LC-MS analysis; assay type: ADME, organism-based; settings: in vivo
[40] = Tmax in Sprague-Dawley rat at 3 mg/kg, iv measured up to 24 hrs by LC-MS analysis; assay type: ADME, organism-based; settings: in vivo
[41] = Half life in Sprague-Dawley rat at 10 mg/kg, po measured up to 24 hrs by LC-MS analysis; assay type: ADME, organism-based; settings: in vivo
[42] = tested on: Influenza A virus; assay: Antiviral activity against Influenza A virus H1N1 (A/Puerto Rico/8/34) infected in MDCK cells assessed as reduction in virus-induced cytopathic effect incubated for 48 hrs by CCK8 assay; assay type: functional, organism-based
[43] = Cytotoxicity against MDCK cells by CCK-8 assay; assay type: toxicity, cell-based, Canis lupus familiaris; settings: dog
[44] = Toxicity in BALB/c mouse assessed as anorexia at 1 g/kg, IG administered 3 times per day and measured for 14 days; settings: in vivo, po, 1000 mg/kg, 336 h, time 14 day
[45] = tested on: Influenza A virus; assay: Antiviral activity against Influenza A virus H1N1 (A/Puerto Rico/8/34) infected in MDCK cells assessed as reduction in NP viral RNA level at 1 uM treated at 4 hrs post infection by qRT-PCR analysis; assay type: functional, organism-based
[46] = Toxicity in BALB/c mouse assessed as body weight loss at 1 g/kg, IG administered 3 times per day and measured on day 4 to 9; settings: in vivo, po, 1000 mg/kg, time 4-9 day
[47] = AUC(0 to t) in Sprague-Dawley rat at 3 mg/kg, iv measured up to 24 hrs by LC-MS analysis; assay type: ADME, organism-based; settings: in vivo
[48] = Metabolic stability in human liver microsomes assessed as intrinsic clearance preincubated for 5 mins followed by NADPH addition and measured upto 45 mins by LC-MS analysis; assay type: ADME, Microsome; settings: time < 50 min, read-out: CLH
[49] = AUC(0 to t) in Sprague-Dawley rat at 10 mg/kg, po measured up to 24 hrs by LC-MS analysis; assay type: ADME, organism-based; settings: in vivo
[50] = Metabolic stability in human plasma measured upto 120 mins by LC-MS/MS analysis; assay type: ADME, cell-free; settings: 2 h
[51] = Metabolic stability in human plasma after 15 mins by LC-MS/MS analysis; assay type: ADME, cell-free; settings: 0.25 h, BLD = below limit of detection

Work on CC(C)(C)c1ccc(C(=O)NC(=S)Nc2ccc(NC(=O)c3ccc(C(C)(C)C)cc3)cc2)cc1 yielded a Tmax [1] of 240 min, a half-life [2] of 192 min and a clearance [3] of 2.29 mL/min/kg. The Activity [4] was “Active”, the Activity [5] was “inactive” and the EC50 [6] was 50 nM. For the same molecule, the Activity [7] was “inactive”, the Activity [8] was “Non-Toxic” and the AUC(0-inf) [9] was 21900 ng·h/mL. The hepatic extraction ratio at 0.75 h [10] was 64.1%, the remaining at 2 h [11] was 64% and the Activity [12] was “Active”. The selectivity ratio [13] was > 120000, the Activity [14] was “Toxic” and the Activity [15] was 50%. For the same molecule, the Activity [16] was “Non-Toxic”, the EC50 [17] was 40 nM and the Activity [18] was “inactive”. For the same molecule, the inhibition [19] was “Dose-Dependent Effect”, the CLhep predicted [20] was 47.8 mL/min/kg and the Activity [21] was “Dose-Dependent Effect”. For the same molecule, the AUC(0-inf) [22] was 5400 ng·h/mL, the Cmax [23] was 41900 ng/mL and the hepatic extraction ratio at 0.75 h [24] was 53.1%. The half-life [25] was 76.7 min, the hepatic extraction ratio at 0.75 h [26] was 52.3% and the CLhep predicted [27] was 10.8 mL/min/kg. The Activity [28] was “Non-Toxic”, the bioavailability [29] was 7.38% and the CLint scaled [30] was 102 mL/min/kg. The Cmax [31] was 1180 ng/mL, the Activity [32] was “inactive” and the Activity [33] was “Dose-Dependent Effect”. For the same molecule, the CLhep predicted [34] was 19.8 mL/min/kg, the half-life [35] was 62.7 min and the CLint scaled [36] was 55.1 mL/min/kg. The half-life [37] was 53.5 min, the Activity [38] was “Non-Toxic” and the half-life [39] was 221 min. For the same molecule, the Tmax [40] was 4.8 min, the half-life [41] was 196 min and the EC50 [42] was 1 nM. For the same molecule, the CC50 [43] was > 100000 nM, the Activity [44] was “Non-Toxic” and the Activity [45] was “Active”. For the same molecule, the Activity [46] was “Non-Toxic”, the AUC(0-t) at 24 h [47] was 21900 ng·h/mL and the CLint scaled [48] was 22.7 mL/min/kg. The AUC(0-t) at 24 h [49] was 5420 ng·h/mL.
Work on O=C(c1ccc(F)cc1)C1CCN(CCn2c(=O)[nH]c3ccccc3c2=O)CC1 [KETANSERIN] yielded a hepatic extraction ratio at 0.75 h [10] of 69.7%, a CLhep predicted [20] of 68.8 mL/min/kg and a hepatic extraction ratio at 0.75 h [24] of 76.5%. The half-life [25] was 37.2 min, the hepatic extraction ratio at 0.75 h [26] was 69.3% and the CLhep predicted [27] was 14.3 mL/min/kg. It also gave a CLint scaled [30] of 293 mL/min/kg, a CLhep predicted [34] of 21.6 mL/min/kg and a half-life [35] of 48.5 min. It also gave a CLint scaled [36] of 71.2 mL/min/kg, a half-life [37] of 18.6 min and a CLint scaled [48] of 46.7 mL/min/kg.
With CCN(CC)CCOC(=O)c1ccc(N)cc1 [PROCAINE] the half-life [2] was 1.12 min, the Stability [50] was “Unstable” and the Stability [51] was “Bld”.
